Experimental data taken from US3975433A, “1-(2,4-Dimethoxy-phenyl)-3-(2-hydroxyethyl)thiourea” (The Dow Chemical Company, priority 1975, dated 1976).

How the values were obtained:
Ascaridia galli = assay: control of Ascaridia galli in chickens (anthelmintic efficacy); format: in vivo; details: infected chickens; for activity in controlling Ascaridia: tested as controls, result in words, dose not separately stated
Method: The compound was evaluated for activity in the control of Ascaridia galli in chickens. The test chickens following infection with Ascaridia are held for at least 30 days to permit all worms to mature. The compound is evaluated for activity in two chickens which are caged together. The compound may be administered orally as a single oral dose or in the feed for four consecutive days. Anthelmintic efficacy of the compound against Ascaridia is determined by comparing the number of ascarids passed in the feces during the first 72 hours post treatment to the number of worms recovered at necropsy.
The following compounds were also tested as controls and found to have no activity in controlling Ascaridia: 1-(4-methoxyphenyl)-3-(2-hydroxyethyl)thiourea; 1-(2,4-dimethylphenyl)-3-(2-hydroxyethyl)thiourea; 1-(4-methylphenyl)-3-(2-hydroxyethyl)thiourea; and 1-(4-methoxy-2-methylphenyl)-3-(2-hydroxyethyl)thiourea.

reserpine-induced ptosis = assay: counteraction of reserpine-induced ptosis in mice (antidepressant properties); format: in vivo; details: for inhibition of reserpine-induced ptosis: mice, 60 mg/kg (i.p.), comparative trials, result in words
Method: The antidepressant properties of the thiourea employed in the methods of the present invention are determined by measuring their ability to counteract ptosis induced in animals by the intraperitoneal injection of reserpine. Graded doses (from about 2.1 to about 100 mg/kg) of the active compounds of this invention are administered intraperitoneally to groups of five mice each, followed 30 minutes later by an intraperitoneal injection of reserpine in an amont which is known to induce ptosis in mice. Similar groups of control mice are administered only reserpine. Forty-five minutes after the administration of reserpine, the presence or absence of ptosis is noted. The percent inhibition of ptosis is noted and the median effective dose (ED50) of each test ingredient which protected 50% of the test mice from reserpine-induced ptosis was calculated.

SMILES | activity in controlling Ascaridia (Ascaridia galli) | other results
Cc1ccc(NC(=S)NCCO)c(C)c1 [1-(2,4-dimethylphenyl)-3-(2-hydroxyethyl)thiourea] | no activity | –
COc1ccccc1NC(=S)NCCO [1-(2-methoxyphenyl)-3-(2-hydroxyethyl)thiourea] | – | inhibition of reserpine-induced ptosis (reserpine-induced ptosis): did not inhibit
COc1ccc(NC(=S)NCCO)cc1OC [1-(3,4-dimethoxyphenyl)-3-(2-hydroxyethyl)thiourea] | – | inhibition of reserpine-induced ptosis (reserpine-induced ptosis): did not inhibit
COc1ccc(NC(=S)NCCO)c(C)c1 [1-(4-methoxy-2-methylphenyl)-3-(2-hydroxyethyl)thiourea] | no activity | –
COc1ccc(NC(=S)NCCO)cc1 [1-(4-methoxyphenyl)-3-(2-hydroxyethyl)thiourea] | no activity | –
Cc1ccc(NC(=S)NCCO)cc1 [1-(4-methylphenyl)-3-(2-hydroxyethyl)thiourea] | no activity | –
COc1ccc(NC(=S)NCCO)c(OC)c1 [Compound 1, 1-(2,4-dimethoxyphenyl)-3-(2-hydroxyethyl)thiourea] | – | activity (number of worms passed in the feces compared to those found at autopsy) (Ascaridia galli; 150 mg/kg, feces during first 72 hours post treatment): 50%
CN(C)CCCN1c2ccccc2CCc2ccccc21 [Imipramine] | – | ED50 (reserpine-induced ptosis; Mus musculus, ip, read-out: ED50 (median effective dose which protected 50% of the test mice from reserpine-induced ptosis)): 15 mg/kg
